Source: patent US7666875B2, “Hydantoin compounds” (Eisai R&D Management Co., Ltd., priority 2005, dated 2010)
Where two headings read alike, the source gives them in different places.

Molecular target: T1, human T-bet (Homo sapiens, UniProt Q9UL17)
T1 construct: expressed in transfected cells; host or cells: engineered HEK cells (HEKT-bet)
T1 sequence (Q9UL17 1-535): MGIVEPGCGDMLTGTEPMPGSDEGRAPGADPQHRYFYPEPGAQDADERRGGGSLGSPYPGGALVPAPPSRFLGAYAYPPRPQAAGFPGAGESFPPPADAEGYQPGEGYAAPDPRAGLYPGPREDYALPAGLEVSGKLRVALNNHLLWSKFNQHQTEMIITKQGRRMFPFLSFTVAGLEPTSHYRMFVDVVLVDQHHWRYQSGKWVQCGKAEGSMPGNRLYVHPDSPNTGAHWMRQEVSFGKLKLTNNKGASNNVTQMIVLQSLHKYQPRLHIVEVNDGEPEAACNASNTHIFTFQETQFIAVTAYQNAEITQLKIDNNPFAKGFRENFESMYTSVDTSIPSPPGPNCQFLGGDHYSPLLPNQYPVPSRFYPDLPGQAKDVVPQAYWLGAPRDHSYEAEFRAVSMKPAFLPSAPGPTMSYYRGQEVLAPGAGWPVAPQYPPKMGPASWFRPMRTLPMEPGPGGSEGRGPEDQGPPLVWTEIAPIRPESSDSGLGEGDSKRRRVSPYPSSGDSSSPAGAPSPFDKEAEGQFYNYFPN
Assay: HEKT-bet-luc assay (T-bet dependent luciferase reporter in engineered HEK cells)
Format: cell-based
Details: HEKT-bet cells, compound 24 hours, IC50 normalized to reference ER-213038, read-out: IC50
Summary of the method: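 HEK cells expressing human T-bet and a T-box element–luciferase reporter were treated with compound for 24 h, then luciferase was read by luminescence. IC50 was scaled between uninhibited signal and maximal inhibition, then normalized to a same-plate reference compound multiplied by its established potency.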

Structure (SMILES)	IC50 (Table 4) [nM]	IC50 (Table 2) [nM]
COc1cccc(CN2C(=O)N(CC=C(C)C)C3(CCN(Cc4cccc5ccccc45)CC3)C2=O)c1 [Example 265]	501	–
CCN1C(=O)N(Cc2cccc(OC)c2)C(=O)C12CCN(Cc1cccc(C)c1)CC2 [Example 266]	510	–
COCCN1C(=O)N(Cc2cccc(OC)c2)C(=O)C12CCN(Cc1cccc3cc[nH]c13)CC2 [Example 267]	510	–
COCCN1C(=O)N(Cc2cccc(OC)c2)C(=O)C12CCN(Cc1c(F)cccc1OC)CC2 [Example 268]	511	–
COCCN1C(=O)N(Cc2cccc(OC)c2)C(=O)C12CCN(Cc1cc(OC)c(Cl)cc1F)CC2 [Example 270]	518	–
CCOc1ccc(OCC)c(CN2CCC3(CC2)C(=O)N(Cc2cccc(OC)c2)C(=O)N3CCOC)c1 [Example 271]	522	–
CCN1C(=O)N(Cc2ccc3ccccc3c2)C(=O)C12CCN(Cc1cccc(C)c1)CC2 [Example 272]	525	–
COCCN1C(=O)N(Cc2cccc(OC)c2)C(=O)C12CCN(Cc1cccc(N(C)C)c1)CC2 [Example 274]	528	–
COCCN1C(=O)N(Cc2cccc(OC)c2)C(=O)C12CCN(Cc1c(Cl)ccc(C)c1F)CC2 [Example 275]	532	–
CCN1C(=O)N(CCCOc2ccccc2)C(=O)C12CCN(Cc1cccc(OC)c1)CC2 [Example 277]	540	–
CCN1C(=O)N(CCCc2ccccc2)C(=O)C12CCN(Cc1cccc3ccccc13)CC2 [Example 280]	546	–
CCN1C(=O)N(CCCc2ccccc2)C(=O)C12CCN(Cc1cccc(OC)c1)CC2 [Example 282]	549	–
COCCN1C(=O)N(CCCc2ccccc2)C(=O)C12CCN(Cc1ccc3ccccc3c1)CC2 [Example 284]	551	–
CCN1C(=O)N(Cc2ccc3ccccc3c2)C(=O)C12CCN(Cc1cccc3ccccc13)CC2 [Example 286]	560	–
COCCN1C(=O)N(Cc2cccc(OC)c2)C(=O)C12CCN(Cc1c(F)ccc(C)c1Cl)CC2 [Example 289]	567	–
COCCN1C(=O)N(Cc2cccc(OC)c2)C(=O)C12CCN(Cc1cccc3c1OCCO3)CC2 [Example 290]	568	–
COCCN1C(=O)N(CCCc2ccccc2OC)C(=O)C12CCN(Cc1ccccc1)CC2 [Example 291]	572	–
O=C1N(/C=C/Cc2ccccc2)C(=O)C2(CCN(Cc3cccc4ccccc34)CC2)N1CCO [Example 294]	579	–
COCCN1C(=O)N(Cc2cccc(OC)c2)C(=O)C12CCN(Cc1cccc3c4ccccc4n(C)c13)CC2 [Example 295]	580	–
CNc1cccc(CN2CCC3(CC2)C(=O)N(Cc2cccc(OC)c2)C(=O)N3CCOC)c1 [Example 298]	589	–
COCCN1C(=O)N(CCCc2ccccc2)C(=O)C12CCN(Cc1cccc(OC)c1)CC2 [Example 300]	598	–
COCCN1C(=O)N(Cc2cccc(OC)c2)C(=O)C12CCN(Cc1cccc(OC)c1F)CC2 [Example 301]	599	–
COc1cc(CN2CCC3(CC2)C(=O)N(C/C=C/c2ccccc2)C(=O)N3CCO)cc(OC)c1 [compound 45]	–	62

Further lines, results first:

IC50 (Table 4) [nM]	IC50 (Table 2) [nM]	Structure (SMILES)
513	–	COCCN1C(=O)N(Cc2cccc(OC)c2)C(=O)C12CCN(Cc1cc(OC)ccc1OC)CC2 [Example 269]
528	–	CCCOc1ccc(CN2CCC3(CC2)C(=O)N(Cc2cccc(OC)c2)C(=O)N3CCOC)cc1OC [Example 273]
538	–	COCCN1C(=O)N(Cc2cccc(OC)c2)C(=O)C12CCN(Cc1cccc(N(C)c3ccccc3)c1)CC2 [Example 276]
542	–	COCCN1C(=O)N(Cc2cccc(OC)c2)C(=O)C12CCN(Cc1ccc(F)c(OC)c1)CC2 [Example 278]
546	–	CCN1C(=O)N(Cc2cccc(OC)c2)C(=O)C12CCN(Cc1cccc(OC)c1)CC2 [Example 279]
548	–	COc1cc(CN2CCC3(CC2)C(=O)N(Cc2cc(OC)cc(OC)c2)C(=O)N3Cc2ccc3c(c2)nnn3C)cc(OC)c1 [Example 281]
550	–	COCCN1C(=O)N(Cc2cccc(OC)c2)C(=O)C12CCN(Cc1ccc(-c3ccccc3)cc1)CC2 [Example 283]
553	–	COc1cccc(CN2C(=O)N(CCCO)C3(CCN(Cc4cc(OC)cc(OC)c4)CC3)C2=O)c1 [Example 285]
561	–	CCN1C(=O)N(CCc2cc(OC)cc(OC)c2)C(=O)C12CCN(Cc1cc(OC)cc(OC)c1)CC2 [Example 287]
567	–	COc1cc(CN2CCC3(CC2)C(=O)N(Cc2cc(OC)cc(OC)c2)C(=O)N3Cc2ccc(-n3cccn3)cc2)cc(OC)c1 [Example 288]
576	–	COCN1C(=O)N(Cc2cc(OC)cc(OC)c2)C(=O)C12CCN(Cc1cccc(OC)c1)CC2 [Example 292]
579	–	COc1cccc(CN2C(=O)N(Cc3ccccc3)C3(CCN(Cc4cc(OC)cc(OC)c4)CC3)C2=O)c1 [Example 293]
586	–	COCN1C(=O)N(/C=C/Cc2ccccc2)C(=O)C12CCN(Cc1cc(OC)cc(OC)c1)CC2 [Example 296]
586	–	COc1cccc(CN2C(=O)N(Cc3cccc(OC)c3)C3(CCN(Cc4ccccc4)CC3)C2=O)c1 [Example 297]
596	–	COc1cccc(CN2C(=O)N(Cc3cccc(OC)c3)C3(CCN(Cc4cccc5ccccc45)CC3)C2=O)c1 [Example 299]
–	45	COc1cc(CN2CCC3(CC2)C(=O)N(C/C=C/c2ccccc2)C(=O)N3Cc2ccc(-n3cccn3)cc2)cc(OC)c1 [compound 41]
